{"source": "patent US11390629B2", "about": "“1,5-disubstituted 1,2,3-triazoles are inhibitors of Rac/Cdc42 GTPases” (UNIVERSITY OF PUERTO RICO, priority 2016, dated 2022)", "key": {"Rho": {"system": "Rho", "assay": "Rho activation pulldown (Rho binding domain of Rhotekin) and western blot, MDA-MB-231 cells", "assay_type": "cell-based, human", "settings": "MDA-MB-231, 250 nM; listed as MBQ-167", "experimental": "Additionally, Rac, Cdc42, or […] activation was determined, by pulldowns using the P21-binding domain (PBD) of PAK, or Rho binding domain of Rhotekin as described (2, 16). The GTP bound active Rac, Cdc42, or Rho was detected by Western blot (N=3)."}, "Cdc42": {"target": "Cdc42 (Homo sapiens, UniProt P60953)", "sequence (P60953 whole entry)": "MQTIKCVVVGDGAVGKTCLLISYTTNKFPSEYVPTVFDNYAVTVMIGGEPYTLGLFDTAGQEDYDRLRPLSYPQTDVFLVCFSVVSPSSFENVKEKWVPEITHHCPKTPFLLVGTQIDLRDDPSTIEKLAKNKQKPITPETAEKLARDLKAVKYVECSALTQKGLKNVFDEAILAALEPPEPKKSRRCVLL", "assay": "Cdc42 activity (Table 1A)", "assay_type": "cell-based", "settings": "class by % inhibition at stated concentration"}, "[1]": {"assay": "Cell viability assay (CellTiter 96 / MTT), MDA-MB-231", "settings": "human"}, "MDA-MB-231 cells": {"system": "MDA-MB-231 cells", "assay": "Cell viability assay (CellTiter 96 / MTT), MDA-MB-231"}}, "note": "“Also recorded” adds a separate entry of the source. Where two headings read alike, the source gives them in different places.", "data": [{"smiles": "CCn1c2ccccc2c2cc(-n3nncc3-c3ccccc3)ccc21", "note": "[I-1, 9-ethyl-3-(5-phenyl-1H-1,2,3-triazol-1-yl)-9H-carbazole]", "values": [{"measurement": "effect on Rho activation", "setting": "Rho", "result": "did not affect; also recorded: does not affect; also recorded: without affecting"}, {"measurement": "Cdc42 activity", "setting": "Cdc42", "result": "A (>50% inhibition at 250 nM)"}, {"measurement": "viability at 24 h, 5 µM", "setting": "[1]; MDA-MB-231, GFP-HER2-BM, MCF-7 and MCF-10 cells", "result": "~75", "unit": "%"}, {"measurement": "viability at 24 h, 0.3 µM", "setting": "[1]; MDA-MB-231 cells", "result": 100, "unit": "%"}, {"measurement": "cell death", "setting": "MDA-MB-231 cells; 1000 nM, 120 h, all cell types (MDA-MB-231, GFP-HER2-BM, MCF10A)", "result": "~100", "unit": "%"}, {"measurement": "GI50", "setting": "MDA-MB-231 cells; 120 h, listed as MBQ-167", "result": 0.11, "unit": "µM"}, {"measurement": "GI50", "setting": "MDA-MB-231 cells; Homo sapiens, MDA-MB-231, 120 h, 120 h", "result": "~0.13", "unit": "µM"}, {"measurement": "GI50", "setting": "MDA-MB-231 cells; Homo sapiens, MDA-MB-231, read-out: GI50 (μM) MDA-MB-231, MDA-MB-231", "result": 0.128, "unit": "µM"}]}]}
